Legend:
Type in all cases: cell-based
[1] = tested on: MDA−MB−231 3D networks; experiment: 3D bioprinted culture cytotoxicity (WST-1); conditions: 72 h, mean ± SEM
Excerpt: (§1) To evaluate the cytotoxic effect of platinum(II) and (IV) complexes in 3D cell culture, MDA−MB−231 or HT29 cells were used to bioprint networks or spheroids with the non-contact drop-on-demand 3D RASTRUM bioprinter (Inventia Life Science, Alexandria, NSW, Australia). The 3D cultures use two constituents: bioink and activator. Cell pellets (2 × 10^6 cells) were resuspended in an activator reagent which forms an instant gel after its addition to the bioink by the bioprinter. The 3D large plug cell model with polyethylene glycol bioinks formulated to mimic the properties of in vivo tissue were chosen as follows. Matrix Px02.31 (activator F177 and bioink F242 with RGD: Fibronectin) was used for MDA−MB−231 3D embedded networks, Px02.00 (activator F177 and bioink F119 without RGD additives, Table S1) was used for MDA−MB−231 spheroids and matrix #Px02.09 (activator F177 and bioink F236 with adhesion peptides including, RGD: Fibronectin, and GFOGER: collagen type I to recapitulate rich in vivo tissue extracellular environments) was used for HT29 spheroids (Inventia Life Science) (Table S1). Each cell line was printed at 10,000 cells/well and loaded with the bioink fluids into the selected printer cartridge. After the automated priming of all fluids into the printer nozzles, each cell line was individually printed on tissue culture plates (Nunc^TM MicroWell^TM 96-Well, Nunclon Delta-Treated, Flat-Bottom Microplate, ThermoFisher #167008), with RASTRUM creating the 3D Large Plug across the 96-well plate. Following completion of the print run, 200 μL DMEM culture medium was added to each well using multichannel pipettes. The plate was then incubated for 7 days (humidified incubator with 5% CO2 at 37 °C) for compact and homogenous spheroid formation before the cytotoxicity assay. When the spheroids developed, post-7-day incubation, media was removed and replaced with 100 µL DMEM. […] Cytotoxicity was then assessed using the WST-1 assay as previously described in Section 2.3.

[2] = tested on: HT29 cells; experiment: Cellular uptake of Pt by ICP-MS; conditions: for Intracellular Concentration: HT29, 3 µM; for Intracellular/extracellular ratio: HT29, extracellular 3 µM
Protocol: (§2) A final concentration of 10^6 cells/well of MDA−MB−231 and HT29 cells were seeded in 6-well plates and incubated overnight to adhere. The cells were then treated with a final concentration of 3 µM of either Pt^II or Pt^IV complexes. After 0, 0.5, 1, 3, 6, 12, 24 or 30 h, the medium was removed, and the cells were washed three times with cold PBS and allowed to dry. Then, 400 µL of 69% HNO3 (Baseline grade nitric acid with PPB level reported impurities, Seastar Chemicals, Sidney, BC, Canada) was added to each well for 90 min to ensure complete digestion. […] Iridium 193 (^193Ir) was mixed online and introduced into the ICP-MS to check uptake efficiency and matrix interference. All ICP-MS parameters are described in Table S2 and elaborated in Method S3. The results represent an average of three different experiments run in triplicate (±SEM) and expressed as nmol/10^6 cells or µM/cell. Quantification of the cellular uptake of Pt was based on external standards (Certified Standard from Sigma-Aldrich, VIC, Australia) containing Internal standard Ir.
(§3) Method S3. Cellular Uptake of Platinum(II) and (IV) complexes
(§4) A final concentration of 10^6 cells/well of MDA−MB−231 and HT29 cells were seeded in 6-well plates and incubated overnight to adhere. The cells were then treated with a final concentration of 3 µM of either PtII or PtIV complexes. After 0, 0.5, 1, 3, 6, 12, 24 or 30 h, the medium was removed, and the cells were washed three times with cold PBS and allowed to dry. Then, 400 µL of 69% HNO3 (Baseline grade nitric acid with Instrument Quality Grade Nitric acid with ppb level reported impurities, Seastar Chemicals, Sidney, Canada) was added to each well for 90 mins to ensure complete digestion. The digests were then moved to trace -metal free 15 mL centrifuge tubes […]
(§5) concentration of 3.5-4%. Iridium 193 (193Ir), selected as internal standard, has similar first ionisation potential and mass to Platinum 195 (195Pt). A concentration of 50 ppb 193Ir in 2% HNO3 solution was chosen for the Perkin Elmer NexION® Inductively Coupled Plasma Mass Spectrometer (ICP-MS) as it produced a steady state signal intensity of 600-800K counts per second. Mixing and injection of sample and internal standard solution was carried out using an ESI 7 port Valve system (Elemental Scientific, USA). A high-quality Solvent Flex 2 stop pump with 0.38 mm ID tubing was used in conjunction with the ICP-MS’s Peristaltic pump set at 20 […]
(§6) standard both, at 0.25 mL/min) being 0.5 mL/min. The ICP-MS was tuned to high sensitivity settings to facilitate detection of low Pt concentrations in samples. This was done by adjusting the nebuliser gas flow between […] to achieve maximum Indium 115 intensity whilst maintaining an acceptable average oxide and doubly charged ratio of 1.64-2.24% and 1.17-1.69% respectively. The analysis method was set to peak hopping mode with a dwell time of […] and 45 sweeps through the mass spectrum per sample read. […]
(§7) peak integration time of 4500 milliseconds and enabled the collection of numerous data points for peak integration thereby increasing accuracy. The ICP-MS was tuned daily, and its performance optimised to a set of suppliers recommended settings. Analysis was only carried out when optimal oxide and doubly charged ratios with high ionic sensitivity was achieved. All ICP-MS parameters are described in Table S2. The results represent an average of three different experiments run in triplicates (± SEM) and expressed as nmol/106 cells or µM/cell. Quantification of the cellular uptake of Pt was based on external standards (Certified Standard from Sigma-Aldrich NSW, Australia) containing Internal standard Ir. […]

[3] = tested on: MDA−MB−231 cells; experiment: Cellular uptake of Pt by ICP-MS; conditions: for Intracellular Concentration: MDA−MB−231, 3 µM; for Intracellular/extracellular ratio: MDA−MB−231, extracellular 3 µM
Protocol: as §2, §3, §4, §5, §6, §7

[4] = tested on: HT29 spheroids; experiment: 3D bioprinted spheroid cytotoxicity (WST-1); conditions: 72 h, mean ± SEM
Excerpt: as §1

[5] = tested on: MDA−MB−231 spheroids; experiment: 3D bioprinted spheroid cytotoxicity (WST-1); conditions: 72 h, mean ± SEM
Excerpt: as §1

Row | SMILES | IC50 [1] | Intracellular Concentration ([2]; 0 h) | Intracellular Concentration ([2]; 0.5 h) | Intracellular Concentration ([2]; 1 h) | Intracellular Concentration ([2]; 3 h) | Intracellular Concentration ([2]; 6 h) | Intracellular Concentration ([2]; 12 h) | Intracellular Concentration ([2]; 24 h) | Intracellular Concentration ([2]; 30 h) | Intracellular/extracellular ratio ([2]; 0 h) | Intracellular/extracellular ratio ([2]; 0.5 h) | Intracellular/extracellular ratio ([2]; 1 h) | Intracellular/extracellular ratio ([2]; 3 h) | Intracellular/extracellular ratio ([2]; 6 h) | Intracellular/extracellular ratio ([2]; 12 h) | Intracellular/extracellular ratio ([2]; 24 h) | Intracellular/extracellular ratio ([2]; 30 h) | Intracellular Concentration ([3]; 0 h) | Intracellular Concentration ([3]; 0.5 h) | Intracellular Concentration ([3]; 1 h) | also measured
1 | Cc1c(C)c2cccnc2c2ncccc12.N[C@H]1CCCC[C@@H]1N.O=[N+]([O-])[O-].O=[N+]([O-])[O-].[OH][Pt+2][OH] [Pt^IV56MESS(OH)2, [Pt(5,6-dimethyl-1,10-phenanthroline)(1S,2S-diaminocyclohexane)(dihydroxy)](NO3)2] | 1400 ± 1340 nM | 0.14 nmol/10^6 cells | 0.18 nmol/10^6 cells | 0.28 nmol/10^6 cells | 0.42 nmol/10^6 cells | 1.74 nmol/10^6 cells | 5.43 nmol/10^6 cells | 9.14 nmol/10^6 cells | 9.98 nmol/10^6 cells | 21.81 | 28.52 | 43.51 | 66.77 | 273.54 | 854.01 | 1435.74 | 1568.28 | 0.14 nmol/10^6 cells | 0.11 nmol/10^6 cells | 0.05 nmol/10^6 cells | Intracellular Concentration ([3]; 3 h): 0.25 nmol/10^6 cells; Intracellular Concentration ([3]; 6 h): 0.30 nmol/10^6 cells; Intracellular Concentration ([3]; 12 h): 1.16 nmol/10^6 cells; Intracellular Concentration ([3]; 24 h): 2.74 nmol/10^6 cells; Intracellular Concentration ([3]; 30 h): 4.19 nmol/10^6 cells; Intracellular/extracellular ratio ([3]; 0.5 h): 50.71; Intracellular/extracellular ratio ([3]; 1 h): 26.14; Intracellular/extracellular ratio ([3]; 3 h): 117.57; Intracellular/extracellular ratio ([3]; 6 h): 142.93; Intracellular/extracellular ratio ([3]; 12 h): 548.82; Intracellular/extracellular ratio ([3]; 24 h): 1293.81; IC50 [4]: 3.16 ± 1.32 µM; IC50 [5]: 4.59 ± 1.35 µM
2 | Cc1cc2cccnc2c2ncccc12.N[C@H]1CCCC[C@@H]1N.O=[N+]([O-])[O-].O=[N+]([O-])[O-].[Pt+2] [Pt^II5MESS, [Pt(5-methyl-1,10-phenanthroline)(1S,2S-diaminocyclohexane)](NO3)2] | 2040 ± 1310 nM | 0.28 nmol/10^6 cells | 0.79 nmol/10^6 cells | 1.26 nmol/10^6 cells | 2.75 nmol/10^6 cells | 4.65 nmol/10^6 cells | 19.18 nmol/10^6 cells | 21.18 nmol/10^6 cells | 21.24 nmol/10^6 cells | 44.37 | 125.00 | 197.63 | 431.44 | 730.89 | 3013.21 | 3327.94 | 3337.20 | 0.37 nmol/10^6 cells | 0.44 nmol/10^6 cells | 0.39 nmol/10^6 cells | Intracellular Concentration ([3]; 3 h): 0.98 nmol/10^6 cells; Intracellular Concentration ([3]; 6 h): 1.25 nmol/10^6 cells; Intracellular Concentration ([3]; 12 h): 4.82 nmol/10^6 cells; Intracellular Concentration ([3]; 24 h): 5.64 nmol/10^6 cells; Intracellular Concentration ([3]; 30 h): 7.63 nmol/10^6 cells; Intracellular/extracellular ratio ([3]; 0 h): 57.65; Intracellular/extracellular ratio ([3]; 0.5 h): 69.63; Intracellular/extracellular ratio ([3]; 1 h): 61.30; Intracellular/extracellular ratio ([3]; 3 h): 154.59; Intracellular/extracellular ratio ([3]; 6 h): 196.09; Intracellular/extracellular ratio ([3]; 12 h): 757.65; Intracellular/extracellular ratio ([3]; 24 h): 885.63; Intracellular/extracellular ratio ([3]; 30 h): 1199.77; IC50 [4]: 2.91 ± 1.39 µM; IC50 [5]: 4.08 ± 1.37 µM
